The values that follow come from the supplement of paper PMC10307832.

Assay in all cases: relative viability (nuclei count vs DMSO), 5 days (fraction); higher = more cells survive
Compound in the assay “KN-93 + Bortezomib”: CN(C/C=C/C1=CC=C(C=C1)Cl)CC2=CC=CC=C2N(CCO)S(=O)(=O)C3=CC=C(C=C3)OC [KN-93] + CC(C)C[C@H](NC(=O)[C@H](Cc1ccccc1)NC(=O)c1cnccn1)B(O)O [Bortezomib] (partner 0.002 µM)
The procedure, abridged:
(§1)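 Relative viability divides the nuclei count in treated wells by that in vehicle wells. Lung cancer cell lines were seeded in 1536-well plates, dosed by pin tool the next day, and fixed and stained after 5 days in one step with final 0.05% Triton X-100, 1% formaldehyde and 1 ug/ml Hoechst. Dosing was a single drug or a fixed anchor-drug dose plus five library-drug doses (not always all listed) in √10 steps, and values are medians of duplicate plates imaged at 4×.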

Compound in the assay “KN-93 + OSI-027”: CN(C/C=C/C1=CC=C(C=C1)Cl)CC2=CC=CC=C2N(CCO)S(=O)(=O)C3=CC=C(C=C3)OC [KN-93] + COc1cccc2cc(-c3nc([C@H]4CC[C@H](C(=O)O)CC4)n4ncnc(N)c34)[nH]c12 [OSI-027] (partner 0.5 µM)
The procedure, abridged: as §1

Compound in the assay “KN-93 + Crizotinib”: CN(C/C=C/C1=CC=C(C=C1)Cl)CC2=CC=CC=C2N(CCO)S(=O)(=O)C3=CC=C(C=C3)OC [KN-93] + C[C@@H](Oc1cc(-c2cnn(C3CCNCC3)c2)cnc1N)c1c(Cl)ccc(F)c1Cl [Crizotinib] (partner 1 µM)
The procedure, abridged:
as §1

Compound in the assay “KN-93 + Pemetrexed”: CN(C/C=C/C1=CC=C(C=C1)Cl)CC2=CC=CC=C2N(CCO)S(=O)(=O)C3=CC=C(C=C3)OC [KN-93] + Nc1nc2[nH]cc(CCc3ccc(C(=O)N[C@@H](CCC(=O)O)C(=O)O)cc3)c2c(=O)[nH]1 [Pemetrexed] (partner 0.2 µM)
The procedure, abridged: as §1

Compound in the assay “KN-93 + Decitabine”: CN(C/C=C/C1=CC=C(C=C1)Cl)CC2=CC=CC=C2N(CCO)S(=O)(=O)C3=CC=C(C=C3)OC [KN-93] + Nc1ncn([C@H]2C[C@H](O)[C@@H](CO)O2)c(=O)n1 [Decitabine] (partner 2 µM)
The procedure, abridged: as §1

For the cell line 201T, the relative viability in the assay with KN-93 + Bortezomib (first compound 0.08 µM) is 1.11; with KN-93 + Bortezomib (first compound 0.253 µM), 1.15; with KN-93 + Bortezomib (first compound 2.53 µM), 1.07; with KN-93 + Bortezomib (first compound 8 µM) it was 0.554; with KN-93 + OSI-027 (first compound 0.08 µM) it was 0.789; in the assay with KN-93 + OSI-027 (first compound 0.253 µM), 0.558. Also, the relative viability with KN-93 + OSI-027 (first compound 2.53 µM) was found to be 0.884; in the assay with KN-93 + OSI-027 (first compound 8 µM), 0.373; with KN-93 + Crizotinib (first compound 0.08 µM) it was 1.01; with KN-93 + Crizotinib (first compound 0.253 µM), 1.05; in the assay with KN-93 + Crizotinib (first compound 2.53 µM), 1.01; in the assay with KN-93 + Crizotinib (first compound 8 µM), 0.973. The relative viability with KN-93 + Pemetrexed (first compound 0.08 µM) is 0.327; with KN-93 + Pemetrexed (first compound 0.253 µM), 0.315; with KN-93 + Pemetrexed (first compound 2.53 µM), 0.32; in the assay with KN-93 + Pemetrexed (first compound 8 µM), 0.323; in the assay with KN-93 + Decitabine (first compound 0.08 µM), 0.866; with KN-93 + Decitabine (first compound 0.253 µM), 0.887. Moreover, the values for the relative viability with KN-93 + Decitabine (first compound 2.53 µM) and with KN-93 + Decitabine (first compound 8 µM) were 0.758 and 0.583, respectively.

With A-427, the relative viability is 1.04 with KN-93 + Bortezomib (first compound 0.08 µM); 0.99 with KN-93 + Bortezomib (first compound 0.253 µM); 0.982 with KN-93 + Bortezomib (first compound 2.53 µM); 0.852 with KN-93 + Bortezomib (first compound 8 µM); 0.507 with KN-93 + OSI-027 (first compound 0.08 µM); 0.621 with KN-93 + OSI-027 (first compound 0.253 µM). Moreover, the relative viability turned out to be 0.462 with KN-93 + OSI-027 (first compound 2.53 µM); 0.265 with KN-93 + OSI-027 (first compound 8 µM); 0.852 with KN-93 + Crizotinib (first compound 0.08 µM); 0.943 with KN-93 + Crizotinib (first compound 0.253 µM); 0.798 with KN-93 + Crizotinib (first compound 2.53 µM); 0.436 with KN-93 + Crizotinib (first compound 8 µM). Also, the relative viability with KN-93 + Pemetrexed (first compound 0.08 µM) stood at 1.05; with KN-93 + Pemetrexed (first compound 0.253 µM), 1.01; in the assay with KN-93 + Pemetrexed (first compound 2.53 µM) it was 0.941; with KN-93 + Pemetrexed (first compound 8 µM) it was 0.776; in the assay with KN-93 + Decitabine (first compound 0.08 µM) it was 0.579; with KN-93 + Decitabine (first compound 0.253 µM) it was 0.511. Further, the relative viability stood at 0.546 with KN-93 + Decitabine (first compound 2.53 µM) and 0.496 in the assay with KN-93 + Decitabine (first compound 8 µM).

For the cell line ABC-1, the relative viability in the assay with KN-93 + Bortezomib (first compound 0.08 µM) was determined as 0.322; with KN-93 + Bortezomib (first compound 0.253 µM), 0.247; with KN-93 + Bortezomib (first compound 2.53 µM), 0.287; with KN-93 + Bortezomib (first compound 8 µM), 0.26; with KN-93 + OSI-027 (first compound 0.08 µM), 0.455; with KN-93 + OSI-027 (first compound 0.253 µM), 0.294. Moreover, the relative viability with KN-93 + OSI-027 (first compound 2.53 µM) was found to be 0.509; with KN-93 + OSI-027 (first compound 8 µM), 0.257; with KN-93 + Crizotinib (first compound 0.08 µM) it was 1.05; with KN-93 + Crizotinib (first compound 0.253 µM), 1.28; with KN-93 + Crizotinib (first compound 2.53 µM), 0.498; with KN-93 + Crizotinib (first compound 8 µM), 0.219. Moreover, the relative viability was 1.37 in the assay with KN-93 + Decitabine (first compound 0.08 µM), 1 with KN-93 + Decitabine (first compound 0.253 µM), 1.17 in the assay with KN-93 + Decitabine (first compound 2.53 µM) and 0.411 in the assay with KN-93 + Decitabine (first compound 8 µM).

For the cell line BEN, the relative viability in the assay with KN-93 + Bortezomib (first compound 0.253 µM) amounted to 0.895; with KN-93 + Bortezomib (first compound 2.53 µM), 1.01; with KN-93 + Bortezomib (first compound 8 µM) it was 0.471; in the assay with KN-93 + OSI-027 (first compound 0.08 µM) it was 0.323; in the assay with KN-93 + OSI-027 (first compound 0.253 µM) it was 0.308; with KN-93 + OSI-027 (first compound 2.53 µM) it was 0.304. Moreover, the relative viability with KN-93 + OSI-027 (first compound 8 µM) was found to be 0.304; with KN-93 + Crizotinib (first compound 0.253 µM), 1.13; with KN-93 + Crizotinib (first compound 2.53 µM), 1.02; with KN-93 + Crizotinib (first compound 8 µM), 0.67; with KN-93 + Pemetrexed (first compound 0.08 µM) it was 0.886; in the assay with KN-93 + Pemetrexed (first compound 0.253 µM), 0.829. In addition, the relative viability with KN-93 + Pemetrexed (first compound 2.53 µM) is 0.913; with KN-93 + Pemetrexed (first compound 8 µM), 0.54; with KN-93 + Decitabine (first compound 0.08 µM) it was 0.74; with KN-93 + Decitabine (first compound 0.253 µM) it was 0.758; with KN-93 + Decitabine (first compound 2.53 µM), 0.926; with KN-93 + Decitabine (first compound 8 µM), 0.537.

Regarding CAL-12T, the relative viability with KN-93 + Bortezomib (first compound 0.08 µM) turned out to be 1.02; with KN-93 + Bortezomib (first compound 0.253 µM), 1.09; with KN-93 + Bortezomib (first compound 2.53 µM) it was 0.993; with KN-93 + Bortezomib (first compound 8 µM) it was 0.803; in the assay with KN-93 + OSI-027 (first compound 0.08 µM), 0.718; with KN-93 + OSI-027 (first compound 0.253 µM), 0.59. The relative viability was 0.657 with KN-93 + OSI-027 (first compound 2.53 µM); 0.434 with KN-93 + OSI-027 (first compound 8 µM); 0.623 with KN-93 + Crizotinib (first compound 0.08 µM); 0.834 in the assay with KN-93 + Crizotinib (first compound 0.253 µM); 0.531 with KN-93 + Crizotinib (first compound 2.53 µM); 0.339 with KN-93 + Crizotinib (first compound 8 µM). The relative viability with KN-93 + Pemetrexed (first compound 0.08 µM) came out at 1.08; with KN-93 + Pemetrexed (first compound 0.253 µM), 1.25; with KN-93 + Pemetrexed (first compound 2.53 µM), 0.93; in the assay with KN-93 + Pemetrexed (first compound 8 µM), 1.01.

With COR-L23, the relative viability with KN-93 + Bortezomib (first compound 0.08 µM) is 0.653; with KN-93 + Bortezomib (first compound 0.253 µM), 1.5; with KN-93 + Bortezomib (first compound 2.53 µM), 1.21; with KN-93 + Bortezomib (first compound 8 µM), 0.573; with KN-93 + OSI-027 (first compound 0.08 µM) it was 0.748; with KN-93 + OSI-027 (first compound 0.253 µM) it was 1.02. For the same cell line, the relative viability is 0.798 with KN-93 + OSI-027 (first compound 2.53 µM); 0.353 with KN-93 + OSI-027 (first compound 8 µM); 0.697 with KN-93 + Crizotinib (first compound 0.08 µM); 0.764 with KN-93 + Crizotinib (first compound 0.253 µM); 0.673 in the assay with KN-93 + Crizotinib (first compound 2.53 µM); 0.455 in the assay with KN-93 + Crizotinib (first compound 8 µM). Moreover, the relative viability with KN-93 + Pemetrexed (first compound 0.08 µM) was 0.196; in the assay with KN-93 + Pemetrexed (first compound 0.253 µM) it was 0.205; with KN-93 + Pemetrexed (first compound 2.53 µM) it was 0.204; in the assay with KN-93 + Pemetrexed (first compound 8 µM) it was 0.2; with KN-93 + Decitabine (first compound 0.08 µM) it was 0.459; with KN-93 + Decitabine (first compound 0.253 µM) it was 0.409. For the same cell line, the relative viability with KN-93 + Decitabine (first compound 2.53 µM) stood at 0.495; with KN-93 + Decitabine (first compound 8 µM), 0.35.

As for COR-L 105, the relative viability came to 0.798 with KN-93 + Bortezomib (first compound 0.08 µM); 0.836 in the assay with KN-93 + Bortezomib (first compound 0.253 µM); 0.914 with KN-93 + Bortezomib (first compound 2.53 µM); 0.378 with KN-93 + Bortezomib (first compound 8 µM); 0.618 with KN-93 + OSI-027 (first compound 0.08 µM); 0.771 in the assay with KN-93 + OSI-027 (first compound 0.253 µM). Further, the relative viability with KN-93 + OSI-027 (first compound 2.53 µM) was 0.588; in the assay with KN-93 + OSI-027 (first compound 8 µM) it was 0.437; with KN-93 + Crizotinib (first compound 0.08 µM), 0.696; with KN-93 + Crizotinib (first compound 0.253 µM), 0.873; with KN-93 + Crizotinib (first compound 2.53 µM), 0.807; with KN-93 + Crizotinib (first compound 8 µM), 0.436. The relative viability was 1.07 with KN-93 + Pemetrexed (first compound 0.08 µM); 1.02 with KN-93 + Pemetrexed (first compound 0.253 µM); 1.31 with KN-93 + Pemetrexed (first compound 2.53 µM); 0.832 with KN-93 + Pemetrexed (first compound 8 µM); 0.635 in the assay with KN-93 + Decitabine (first compound 0.08 µM); 0.657 in the assay with KN-93 + Decitabine (first compound 0.253 µM). The values for the relative viability with KN-93 + Decitabine (first compound 2.53 µM) and with KN-93 + Decitabine (first compound 8 µM) were 0.667 and 0.634, respectively.

In the case of ChaGo-K-1, the relative viability with KN-93 + Bortezomib (first compound 0.08 µM) stood at 1.33; with KN-93 + Bortezomib (first compound 0.253 µM) it was 1.18; with KN-93 + Bortezomib (first compound 2.53 µM) it was 1.15; in the assay with KN-93 + Bortezomib (first compound 8 µM), 0.536; with KN-93 + OSI-027 (first compound 0.08 µM), 0.585; in the assay with KN-93 + OSI-027 (first compound 0.253 µM), 0.512. Also, the relative viability with KN-93 + OSI-027 (first compound 2.53 µM) came out at 0.449; in the assay with KN-93 + OSI-027 (first compound 8 µM), 0.426; in the assay with KN-93 + Crizotinib (first compound 0.08 µM) it was 1.12; with KN-93 + Crizotinib (first compound 0.253 µM) it was 1.23; with KN-93 + Crizotinib (first compound 2.53 µM), 1.11; with KN-93 + Crizotinib (first compound 8 µM) it was 0.722. For the same cell line, the relative viability stood at 0.264 in the assay with KN-93 + Pemetrexed (first compound 0.08 µM); 0.259 in the assay with KN-93 + Pemetrexed (first compound 0.253 µM); 0.246 in the assay with KN-93 + Pemetrexed (first compound 2.53 µM); 0.258 with KN-93 + Pemetrexed (first compound 8 µM); 0.559 with KN-93 + Decitabine (first compound 0.08 µM); 0.528 with KN-93 + Decitabine (first compound 0.253 µM). In addition, the relative viability is 0.541 in the assay with KN-93 + Decitabine (first compound 2.53 µM) and 0.457 with KN-93 + Decitabine (first compound 8 µM).
